Measured values taken from patent US20090209491A1, “Lactams as conformationally constrained peptidomimetic inhibitors” (Trustees of Tufts College, priority 2004, published 2009).

Target: DPIV (Homo sapiens, UniProt P27487)
Assay: DPIV Inhibition Assay
Format: biochemical
Conditions: pH 8; substrate L-alanyl-L-proline-para-nitroanilide; inhibitor stood in pH 8 buffer overnight; absorbance 410 nm
Description: The inhibitor solution was prepared by dissolving 3-5 mg of inhibitor in pH 2 solution (0.01 N HCl), such that the concentration of the solution was equal to 1 mg/10 μL. A 10 μL sample of this solution was then added to 990 μL of pH 8 buffer (0.1 M HEPES, 0.14 M NaCl), and the solution was allowed to stand at room temperature overnight.
The enzyme solution was prepared by diluting 20 μL of DPIV (concentration 2.5 μM) into 40 mL of pH 8 buffer.
The substrate solution was prepared by dissolving 2.0 mg of L-alanyl-L-proline-para-nitroanilide into 20 mL of pH 8 buffer.
250 μL of enzyme solution was added to well #B1 to #H1, #A2 to #H2, and #A3 to #H3 of a 96 well plate, while well #Al received 250 μL of pH 8 buffer instead of enzyme solution. 90 μL of pH 8 buffer was then added to column 5 (from well #A5 to #H5).
A 1:10 dilution was then performed by adding inhibitor solution to #A5 and the solution was mixed well before transferring 10 μL of this solution from #A5 to #B5. The solution in #B5 was then mixed well before transferring 10 μL of this solution from #B5 to #C5. The solution in #C5 was then mixed well before transferring 10 μL of this solution from #C5 to #D5. The solution in #D5 was then mixed well before transferring 10 μL of this solution from #D5 to #E5. The solution in #E5 was then mixed well before transferring 10 μL of this solution from #E5 to #F5. The solution in #F5 was then mixed well before transferring 10 μL of this solution from #F5 to #G5. The solution in #G5 was then mixed well before transferring 10 μL of this solution from #G5 to #H5.
A 30 μL aliquot was then transferred from #H5 to #H3 for row H, and the contents were mixed well. The analogous procedure was repeated for rows G, F, E, D, C, B, and A sequentially. The plate was then shaken on a plate shaker for 5 minutes before allowing the plate to incubate at room temperature for an additional 5 minutes.
Once the plate had been allowed to incubate, 30 μL of substrate was added to each well except well #A1. The plate was then placed on a plate shaker for 5 minutes before allowing the plate to incubate at room temperature for 25 minutes. The absorbance was then immediately read at a wavelength of 410 nm.

DPIV, sequence (P27487 whole entry): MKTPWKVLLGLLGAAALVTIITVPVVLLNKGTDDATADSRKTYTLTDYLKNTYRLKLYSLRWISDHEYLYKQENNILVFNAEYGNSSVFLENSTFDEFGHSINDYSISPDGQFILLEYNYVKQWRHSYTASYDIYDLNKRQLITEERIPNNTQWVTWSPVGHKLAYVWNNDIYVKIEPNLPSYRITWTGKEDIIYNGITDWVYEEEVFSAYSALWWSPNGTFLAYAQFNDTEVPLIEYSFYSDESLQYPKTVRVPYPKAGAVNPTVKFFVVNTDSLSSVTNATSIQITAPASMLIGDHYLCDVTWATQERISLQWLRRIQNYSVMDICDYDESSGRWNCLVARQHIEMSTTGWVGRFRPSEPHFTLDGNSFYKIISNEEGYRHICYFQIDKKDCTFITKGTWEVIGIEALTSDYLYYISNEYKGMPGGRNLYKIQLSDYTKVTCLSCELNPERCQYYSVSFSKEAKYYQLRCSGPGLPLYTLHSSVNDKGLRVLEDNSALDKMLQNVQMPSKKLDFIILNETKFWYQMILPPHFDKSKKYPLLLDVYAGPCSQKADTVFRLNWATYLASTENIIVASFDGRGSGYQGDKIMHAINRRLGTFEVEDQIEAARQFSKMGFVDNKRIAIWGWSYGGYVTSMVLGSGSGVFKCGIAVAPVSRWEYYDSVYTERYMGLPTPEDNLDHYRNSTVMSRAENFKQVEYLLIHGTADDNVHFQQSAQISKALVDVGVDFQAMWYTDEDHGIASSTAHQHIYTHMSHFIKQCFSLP

| Structure (SMILES) | IC50 |
| --- | --- |
| C[C@@H](B(O)O)N1CC[C@](N)(Cc2cccc3ccccc23)C1=O [P] | 2.1 nM |
| C[C@@H](B(O)O)N1CC[C@](C)(N)C1=O [F] | 69000 nM |
| C[C@@H](B(O)O)N1CCC(N)C1=O (stereo partly drawn) [B] | 40 nM |
| C[C@@H](B(O)O)N1CC[C@@](C)(N)C1=O [G] | 6.7 nM |
| CC(B(O)O)N1CCC(N)C1=O (stereo not drawn) [D] | 34 nM |
| C[C@@H](B(O)O)N1CC[C@](N)(CC(=O)O)C1=O [K] | 36 nM |
| CN[C@]1(Cc2ccccc2)CCN([C@@H](C)B(O)O)C1=O [O] | 630 nM |
| C[C@@H](B(O)O)N1CC[C@]2(CCCN2)C1=O [Q] | 9.9 nM |
| CCCC[C@@]1(N)CCN([C@@H](C)B(O)O)C1=O [J] | 1.9 nM |

More lines, now with the values ahead:

| IC50 | Structure (SMILES) |
| --- | --- |
| 11000 nM | C[C@H](C#N)N1CCC(N)C1=O (stereo partly drawn) [A] |
| 340 nM | C[C@H](B(O)O)N1CCC(N)C1=O (stereo partly drawn) [C] |
| 3 nM | CC[C@@H](B(O)O)N1CC[C@](N)(Cc2ccccc2)C1=O [N] |
| 23 nM | CC(B(O)O)N1CCC(C)(N)C1=O (stereo not drawn) [E] |
| 2.6 nM | C[C@@H](B(O)O)N1CC[C@](N)(Cc2ccccc2)C1=O [M] |
| 25 nM | CC[C@H](B(O)O)N1CC[C@](N)(CC)C1=O [Compound I] |
